Test results: PubChem BioAssay AID330 (DTP/NCI, 2004)
Values joined by “and” are separate entries in the source; they are usually repeats but may differ in a detail not shown here. Identical values can stand only once. Toxic doses and inconclusive results are not listed. How the source made its calls: active means survival T/C of 150% or more; inactive means T/C below 125% in these data.

Test system: P388 leukemia ip, CD2F1 mice, survival T/C
Test: NCI In Vivo Anticancer Drug Screen. Data for tumor model P388 Leukemia (intraperitoneal) in CD2F1 (CDF1) mice
Settings: endpoint: median survival time, higher = longer survival
How it was run: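 Mice carrying the transplanted tumor received test compound or vehicle. Survival was recorded in each group, and the value is the treated-group measurement divided by that of the vehicle-treated control group.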

[1] = dose: 50.0 mg/kg/injection, schedule: Q01DX005 (ip), vehicle: saline
[2] = dose: 100.0 mg/kg/injection, schedule: Q01DX005 (ip), vehicle: saline
[3] = dose: 50.0 mg/kg/injection, schedule: Q01DX005 (ip), vehicle: saline with Tween-80
[4] = dose: 100.0 mg/kg/injection, schedule: Q01DX005 (ip), vehicle: saline with Tween-80
[5] = dose: 200.0 mg/kg/injection, schedule: Q01DX005 (ip), vehicle: saline with Tween-80
[6] = dose: 6.25 mg/kg/injection, schedule: Q01DX009 (ip), vehicle: other
[7] = dose: 25.0 mg/kg/injection, schedule: Q01DX009 (ip), vehicle: other
[8] = dose: 60.0 mg/kg/injection, schedule: Q01DX005 (ip), vehicle: Klucel (hydroxypropylcellulose) (HPC)
[9] = dose: 120.0 mg/kg/injection, schedule: Q01DX005 (ip), vehicle: Klucel (hydroxypropylcellulose) (HPC)
[10] = dose: 240.0 mg/kg/injection, schedule: Q01DX005 (ip), vehicle: Klucel (hydroxypropylcellulose) (HPC)
[11] = dose: 60.0 mg/kg/injection, schedule: Q01DX005 (ip), vehicle: saline with Tween-80
[12] = dose: 120.0 mg/kg/injection, schedule: Q01DX005 (ip), vehicle: saline with Tween-80

Measured: T/C

CN1CCC/C1=C/C(=O)c1ccccc1[N+](=O)[O-]
inactive: dose: 100.0 mg/kg/injection, schedule: Q04DX002 (ip), vehicle: Klucel (hydroxypropylcellulose) (HPC) 102 % of control | dose: 200.0 mg/kg/injection, schedule: Q04DX002 (ip), vehicle: Klucel (hydroxypropylcellulose) (HPC) 99 % of control | dose: 400.0 mg/kg/injection, schedule: Q04DX002 (ip), vehicle: Klucel (hydroxypropylcellulose) (HPC) 100 % of control

C=CCC(C=C=CCN(C)C)CO (stereo not given)
inactive: [1] 103 % of control | [2] 104 % of control

CN(C)CCC[N+](C)(C)Cc1ccc(C[N+](C)(C)CCC[N+](C)(C)Cc2ccc(CCl)cc2)cc1
inactive: dose: 12.5 mg/kg/injection, schedule: Q01DX009 (ip), vehicle: saline 106 % of control | dose: 25.0 mg/kg/injection, schedule: Q01DX009 (ip), vehicle: saline 92 % of control

CC(=O)N1C(=O)CC23c4ccccc4C(=O)N2CCCN13 (stereo not given)
inactive: [3] 99 % of control | [4] 106 % of control | [5] 99 % of control

CN(N=O)P(=O)(Nc1ccccc1)Nc1ccccc1
inactive: [6] 100 % of control | [7] 100 % of control | dose: 50.0 mg/kg/injection, schedule: Q01DX009 (ip), vehicle: other 100 % of control

C=CS(C=C)=NS(=O)(=O)c1ccc(C)cc1
inactive: [6] 107 % of control and 110 % of control and 120 % of control | dose: 12.5 mg/kg/injection, schedule: Q01DX009 (ip), vehicle: other 107 % of control and 118 % of control and 120 % of control | [7] 117 % of control

c1ccc2c(c1)[nH]c1c2nc2sccn21
inactive: [8] 115 % of control | [9] 115 % of control | [10] 116 % of control

CN1C=[N+](C)Cc2nnn(Cc3ccccc3)c21
inactive: dose: 1.56 mg/kg/injection, schedule: Q01DX009 (ip), vehicle: saline 105 % of control | dose: 3.12 mg/kg/injection, schedule: Q01DX009 (ip), vehicle: saline 105 % of control | dose: 6.25 mg/kg/injection, schedule: Q01DX009 (ip), vehicle: saline 100 % of control

O=C(O)C(O)(c1ccccc1)C1CCCC1 (stereo not given)
inactive: dose: 100.0 mg/kg/injection, schedule: Q01DX009 (ip), vehicle: saline with Tween-80 109 % of control | dose: 400.0 mg/kg/injection, schedule: Q01DX009 (ip), vehicle: saline with Tween-80 107 % of control

CCCCCCC(/C=C/c1ccc(Cl)c(Cl)c1)=N\Nc1ccccc1
inactive: dose: 6.25 mg/kg/injection, schedule: Q01DX009 (ip), vehicle: saline with Tween-80 103 % of control | dose: 12.5 mg/kg/injection, schedule: Q01DX009 (ip), vehicle: saline with Tween-80 97 % of control | dose: 25.0 mg/kg/injection, schedule: Q01DX009 (ip), vehicle: saline with Tween-80 103 % of control | dose: 50.0 mg/kg/injection, schedule: Q01DX009 (ip), vehicle: saline with Tween-80 100 % of control

c1ccc2c(c1)c1c(c3ccccc32)CNCC1
inactive: dose: 3.12 mg/kg/injection, schedule: Q01DX005 (ip), vehicle: saline with Tween-80 97 % of control | dose: 6.25 mg/kg/injection, schedule: Q01DX005 (ip), vehicle: saline with Tween-80 95 % of control | dose: 12.5 mg/kg/injection, schedule: Q01DX005 (ip), vehicle: saline with Tween-80 101 % of control and 95 % of control | [3] 117 % of control

COc1ccc(/C=C2/C(=O)N(c3ccccc3)N=C2C)cc1
inactive: [8] 107 % of control | [9] 104 % of control | [10] 107 % of control

CC(=O)n1c(Cl)c(/C=N/Nc2ccccc2[N+](=O)[O-])c2ccccc21
inactive: dose: 25.0 mg/kg/injection, schedule: Q01DX001 (ip), vehicle: Klucel (hydroxypropylcellulose) (HPC) 91 % of control | dose: 50.0 mg/kg/injection, schedule: Q01DX001 (ip), vehicle: Klucel (hydroxypropylcellulose) (HPC) 99 % of control | dose: 100.0 mg/kg/injection, schedule: Q01DX001 (ip), vehicle: Klucel (hydroxypropylcellulose) (HPC) 87 % of control and 91 % of control

C[N+](C)(C)CCC[N+]1(C)CC2CCCCC2C1 (stereo not given)
inactive: [1] 107 % of control | [2] 98 % of control | dose: 200.0 mg/kg/injection, schedule: Q01DX005 (ip), vehicle: saline 101 % of control

O=c1c(O)cc2c(O)oc3c(=O)c(O)c(O)c4c(O)oc1c2c43
inactive: dose: 25.0 mg/kg/injection, schedule: Q01DX009 (ip), vehicle: suspension in saline 114 % of control and 97 % of control | dose: 50.0 mg/kg/injection, schedule: Q01DX009 (ip), vehicle: suspension in saline 111 % of control and 97 % of control | dose: 100.0 mg/kg/injection, schedule: Q01DX009 (ip), vehicle: suspension in saline 112 % of control and 98 % of control | dose: 200.0 mg/kg/injection, schedule: Q01DX009 (ip), vehicle: suspension in saline 103 % of control and 114 % of control

C/[N+]([O-])=C/c1ncc([N+](=O)[O-])n1CCO
inactive: dose: 50.0 mg/kg/injection, schedule: Q01DX009 (ip), vehicle: saline 102 % of control | dose: 100.0 mg/kg/injection, schedule: Q01DX009 (ip), vehicle: saline 107 % of control | dose: 200.0 mg/kg/injection, schedule: Q01DX009 (ip), vehicle: saline 98 % of control

O=[N+]([O-])c1ccc(C2=C[P+](c3ccccc3)(c3ccccc3)C=C(c3ccccc3)O2)cc1
inactive: dose: 1.5 mg/kg/injection, schedule: Q01DX005 (ip), vehicle: saline with Tween-80 115 % of control | dose: 1.5 mg/kg/injection, schedule: Q01DX005 (ip), vehicle: saline 117 % of control | dose: 3.0 mg/kg/injection, schedule: Q01DX005 (ip), vehicle: saline with Tween-80 113 % of control | dose: 3.0 mg/kg/injection, schedule: Q01DX005 (ip), vehicle: saline 124 % of control

Cc1nn(C(=S)S)c(C)c1N=Nc1ccc(Cl)cc1Cl
inactive: [3] 100 % of control | [4] 96 % of control | [5] 102 % of control

Cn1cnc2cc(N3CCCCC3)c(N)cc2c1=O
inactive: dose: 100.0 mg/kg/injection, schedule: Q04DX003 (ip), vehicle: Klucel (hydroxypropylcellulose) (HPC) 107 % of control | dose: 200.0 mg/kg/injection, schedule: Q04DX003 (ip), vehicle: Klucel (hydroxypropylcellulose) (HPC) 99 % of control | dose: 400.0 mg/kg/injection, schedule: Q04DX003 (ip), vehicle: Klucel (hydroxypropylcellulose) (HPC) 102 % of control

CCC(C)/C(=C\C#N)NCCCN/C(=C/C#N)C(C)CC (stereo not given)
inactive: dose: 3.75 mg/kg/injection, schedule: Q01DX005 (ip), vehicle: Klucel + Tween-80 100 % of control | dose: 7.5 mg/kg/injection, schedule: Q01DX005 (ip), vehicle: Klucel + Tween-80 109 % of control | dose: 15.0 mg/kg/injection, schedule: Q01DX005 (ip), vehicle: Klucel + Tween-80 92 % of control and 98 % of control | dose: 60.0 mg/kg/injection, schedule: Q01DX005 (ip), vehicle: Klucel + Tween-80 86 % of control | [9] 88 % of control

CC(=O)CC(C)=NCC(C)N=C(C)CC(C)=O (stereo not given)
inactive: dose: 100.0 mg/kg/injection, schedule: Q04DX003 (ip), vehicle: saline 100 % of control | dose: 200.0 mg/kg/injection, schedule: Q04DX003 (ip), vehicle: saline 100 % of control | dose: 400.0 mg/kg/injection, schedule: Q04DX003 (ip), vehicle: saline 100 % of control

CCCCNC(=S)N/N=C1/C=C2C=CC3C(CCC4(C)C(OC(C)=O)CCC34)C2(C)CC1 (stereo not given)
inactive: dose: 100.0 mg/kg/injection, schedule: Q01DX001 (ip), vehicle: saline 99 % of control | dose: 200.0 mg/kg/injection, schedule: Q01DX001 (ip), vehicle: saline 98 % of control | dose: 400.0 mg/kg/injection, schedule: Q01DX001 (ip), vehicle: saline 97 % of control

CSc1nc(NC2OCC(OC(C)=O)C(OC(C)=O)C2OC(C)=O)c(N=C(C)C(C)=O)c(=O)[nH]1 (stereo not given)
inactive: [11] 95 % of control | [12] 108 % of control | dose: 240.0 mg/kg/injection, schedule: Q01DX005 (ip), vehicle: saline with Tween-80 95 % of control

Cc1ccc(S(=O)(=O)c2cc3ccccc3oc2=O)cc1
inactive: [11] 91 % of control | [12] 88 % of control

CCN(CC)Cc1c[nH]c2ccccc12
inactive: dose: 12.5 mg/kg/injection, schedule: Q01DX009 (ip), vehicle: Klucel (hydroxypropylcellulose) (HPC) 102 % of control | dose: 25.0 mg/kg/injection, schedule: Q01DX009 (ip), vehicle: Klucel (hydroxypropylcellulose) (HPC) 103 % of control | dose: 50.0 mg/kg/injection, schedule: Q01DX009 (ip), vehicle: Klucel (hydroxypropylcellulose) (HPC) 97 % of control

NC(=O)C1C(=O)NC(=O)C1=O (stereo not given)
inactive: dose: 15.0 mg/kg/injection, schedule: Q01DX005 (ip), vehicle: saline with Tween-80 100 % of control | dose: 30.0 mg/kg/injection, schedule: Q01DX005 (ip), vehicle: saline with Tween-80 101 % of control | [11] 109 % of control and 114 % of control
